In ChEMBL document CHEMBL4706559, “New indolylarylsulfone non-nucleoside reverse transcriptase inhibitors show low nanomolar inhibition of single and double HIV-1 mutant strains” (Eur J Med Chem, 2020):

System: Human immunodeficiency virus 1
Test: Antiviral activity against HIV1 harboring RT K103N/Y181C double mutant infected in human MT4 cells assessed as protection against virus-induced cytopathic effect by MTT assay
Type: functional, organism-based
Details: Human immunodeficiency virus 1, MT4
With Cc1cn([C@H]2C[C@H](N=[N+]=[N-])[C@@H](CO)O2)c(=O)[nH]c1=O [ZIDOVUDINE] the EC50 was 16 nM.
Cc1cc(C)cc(S(=O)(=O)c2c(C(=O)NCCc3ccc(O)cc3)[nH]c3ccc(Cl)cc23)c1 gave an EC50 of 4310 nM.
NC(=O)c1[nH]c2ccc(Cl)cc2c1S(=O)(=O)c1ccccc1 [L-737126] gave an EC50 of 8000 nM.
Work on Cc1cc(C)cc(S(=O)(=O)c2c(C(=O)Nc3ccc(O)cc3)[nH]c3ccc(Cl)cc23)c1 yielded an EC50 of 967 nM.
Cc1cc(C)cc(S(=O)(=O)c2c(C(=O)Nc3ccccc3O)[nH]c3ccc(Cl)cc23)c1 gave an EC50 greater than 19700 nM.
In the case of Cc1cc(C)cc(S(=O)(=O)c2c(C(=O)Nc3cccc(O)c3)[nH]c3ccc(Cl)cc23)c1, the EC50 is reported as 6090 nM.

System: Human immunodeficiency virus 1
Test: Antiviral activity against HIV1 harboring RT K103N mutant infected in human MT4 cells assessed as protection against virus-induced cytopathic effect by MTT assay
Type: functional, organism-based
Details: Human immunodeficiency virus 1, MT4
With Cc1cc(C)cc(S(=O)(=O)c2c(C(=O)NCCc3ccc(O)cc3)[nH]c3ccc(Cl)cc23)c1 the EC50 was 166 nM.
With Cc1cc(C)cc(S(=O)(=O)c2c(C(=O)Nc3ccc(O)cc3)[nH]c3ccc(Cl)cc23)c1 the EC50 was less than 0.7 nM.
Cc1cc(C)cc(S(=O)(=O)c2c(C(=O)Nc3ccccc3O)[nH]c3ccc(Cl)cc23)c1 showed an EC50 greater than 0.7 nM.
In the case of Cc1cc(C)cc(S(=O)(=O)c2c(C(=O)Nc3cccc(O)c3)[nH]c3ccc(Cl)cc23)c1, the EC50 is reported as less than 0.7 nM.

System: Human immunodeficiency virus 1
Test: Antiviral activity against HIV1 harboring RT Y181C mutant infected in human MT4 cells assessed as protection against virus-induced cytopathic effect by MTT assay
Type: functional, organism-based
Details: Human immunodeficiency virus 1, MT4
With Cc1cc(C)cc(S(=O)(=O)c2c(C(=O)NCCc3ccc(O)cc3)[nH]c3ccc(Cl)cc23)c1 the EC50 was 85 nM.
Cc1cc(C)cc(S(=O)(=O)c2c(C(=O)Nc3ccc(O)cc3)[nH]c3ccc(Cl)cc23)c1 gave an EC50 of less than 0.7 nM.
With Cc1cc(C)cc(S(=O)(=O)c2c(C(=O)Nc3ccccc3O)[nH]c3ccc(Cl)cc23)c1 the EC50 was 20 nM.
For Cc1cc(C)cc(S(=O)(=O)c2c(C(=O)Nc3cccc(O)c3)[nH]c3ccc(Cl)cc23)c1, the EC50 was 44 nM.

Target: not listed separately
Test: Inhibition of RNA-dependent DNA polymerase activity of recombinant HIV-1 p66/p51 reverse transcriptase Y188L mutant assessed as inhibition of [3H]dTTP incorporation using poly(rA)/oligo(dT) as templates incubated for 15 mins by MicroBeta scintillation counting method
Parameters: species or system Human immunodeficiency virus 1
Details: not given
For Cc1cc(C)cc(S(=O)(=O)c2c(C(=O)Nc3ccc(O)cc3)[nH]c3ccc(Cl)cc23)c1, the IC50 was 81 nM.

System: Human immunodeficiency virus 1
Test: Resistance index, ratio of EC50 for antiviral activity against HIV1 harboring RT Y188L mutant infected in human MT4 cells to EC50 for antiviral activity against HIV1 NL4-3 infected in human MT4 cells
Type: functional
Details: not given
With Cc1cn([C@H]2C[C@H](N=[N+]=[N-])[C@@H](CO)O2)c(=O)[nH]c1=O [ZIDOVUDINE] the “Ratio EC50” value was 8.9.
In the case of Cc1cc(C)cc(S(=O)(=O)c2c(C(=O)NCCc3ccc(O)cc3)[nH]c3ccc(Cl)cc23)c1, the “Ratio EC50” value is reported as greater than 39103.
For Cc1cc(C)cc(S(=O)(=O)c2c(C(=O)Nc3ccc(O)cc3)[nH]c3ccc(Cl)cc23)c1, the “Ratio EC50” value was greater than 1413.
In the case of Cc1cc(C)cc(S(=O)(=O)c2c(C(=O)Nc3ccccc3O)[nH]c3ccc(Cl)cc23)c1, the “Ratio EC50” value is reported as greater than 6881.
In the case of Cc1cc(C)cc(S(=O)(=O)c2c(C(=O)Nc3cccc(O)c3)[nH]c3ccc(Cl)cc23)c1, the “Ratio EC50” value is reported as greater than 650.

System: Human immunodeficiency virus 1
Test: Resistance index, ratio of EC50 for antiviral activity against HIV1 harboring RT K103N/Y181C double mutant infected in human MT4 cells to EC50 for antiviral activity against HIV1 NL4-3 infected in human MT4 cells
Type: functional
Details: not given
With Cc1cc(C)cc(S(=O)(=O)c2c(C(=O)NCCc3ccc(O)cc3)[nH]c3ccc(Cl)cc23)c1 the “Ratio EC50” value was 6152.
In the case of Cc1cc(C)cc(S(=O)(=O)c2c(C(=O)Nc3ccc(O)cc3)[nH]c3ccc(Cl)cc23)c1, the “Ratio EC50” value is reported as greater than 1381.
With Cc1cc(C)cc(S(=O)(=O)c2c(C(=O)Nc3ccccc3O)[nH]c3ccc(Cl)cc23)c1 the “Ratio EC50” value was greater than 28166.
With Cc1cc(C)cc(S(=O)(=O)c2c(C(=O)Nc3cccc(O)c3)[nH]c3ccc(Cl)cc23)c1 the “Ratio EC50” value was greater than 8698.

Target: Human immunodeficiency virus type 1 reverse transcriptase (Human immunodeficiency virus 1, UniProt Q72547)
Test: Inhibition of RNA-dependent DNA polymerase activity of wild type recombinant HIV-1 His-tagged p66/p51 reverse transcriptase assessed as inhibition of [3H]dTTP incorporation using poly(rA)/oligo(dT) as templates incubated for 15 mins by MicroBeta scintillation counting method
Details: not given
Compound Cc1cc(C)cc(S(=O)(=O)c2c(C(=O)Nc3ccc(O)cc3)[nH]c3ccc(Cl)cc23)c1 has an IC50 of 69 nM.

System: Human immunodeficiency virus 1
Test: Resistance index, ratio of EC50 for antiviral activity against HIV1 harboring RT K103N mutant infected in human MT4 cells to EC50 for antiviral activity against HIV1 NL4-3 infected in human MT4 cells
Type: functional
Details: not given
With Cc1cn([C@H]2C[C@H](N=[N+]=[N-])[C@@H](CO)O2)c(=O)[nH]c1=O [ZIDOVUDINE] the “Ratio EC50” value was 4.3.
In the case of Cc1cc(C)cc(S(=O)(=O)c2c(C(=O)NCCc3ccc(O)cc3)[nH]c3ccc(Cl)cc23)c1, the “Ratio EC50” value is reported as greater than 276.

Target: not listed separately
Test: Inhibition of RNA-dependent DNA polymerase activity of recombinant HIV-1 p66/p51 reverse transcriptase K103N/Y181C mutant assessed as inhibition of [3H]dTTP incorporation using poly(rA)/oligo(dT) as templates incubated for 15 mins by MicroBeta scintillation counting method
Parameters: species or system Human immunodeficiency virus 1
Details: not given
In the case of Cc1cc(C)cc(S(=O)(=O)c2c(C(=O)Nc3ccc(O)cc3)[nH]c3ccc(Cl)cc23)c1, the IC50 is reported as 375 nM.

System: Human immunodeficiency virus 1
Test: Resistance index, ratio of EC50 for antiviral activity against HIV1 harboring RT Y181C mutant infected in human MT4 cells to EC50 for antiviral activity against HIV1 NL4-3 infected in human MT4 cells
Type: functional
Details: not given
With Cc1cn([C@H]2C[C@H](N=[N+]=[N-])[C@@H](CO)O2)c(=O)[nH]c1=O [ZIDOVUDINE] the “Ratio EC50” value was 1.6.
For Cc1cc(C)cc(S(=O)(=O)c2c(C(=O)NCCc3ccc(O)cc3)[nH]c3ccc(Cl)cc23)c1, the “Ratio EC50” value was greater than 141.
For Cc1cc(C)cc(S(=O)(=O)c2c(C(=O)Nc3ccccc3O)[nH]c3ccc(Cl)cc23)c1, the “Ratio EC50” value was greater than 28.
In the case of Cc1cc(C)cc(S(=O)(=O)c2c(C(=O)Nc3cccc(O)c3)[nH]c3ccc(Cl)cc23)c1, the “Ratio EC50” value is reported as greater than 62.

System: not listed separately
Test: Cytotoxicity against human MT-4 cells assessed as reduction in cell viability by MTT assay
Type: cell-based, MT4
Details: not given
Work on Cc1cn([C@H]2C[C@H](N=[N+]=[N-])[C@@H](CO)O2)c(=O)[nH]c1=O [ZIDOVUDINE] yielded a CC50 greater than 30600 nM.
Compound Cc1cc(C)cc(S(=O)(=O)c2c(C(=O)NCCc3ccc(O)cc3)[nH]c3ccc(Cl)cc23)c1 has a CC50 of 27400 nM.
Cc1cc(C)cc(S(=O)(=O)c2c(C(=O)Nc3ccc(O)cc3)[nH]c3ccc(Cl)cc23)c1 gave a CC50 of 18100 nM.
In the case of Cc1cc(C)cc(S(=O)(=O)c2c(C(=O)Nc3ccccc3O)[nH]c3ccc(Cl)cc23)c1, the CC50 is reported as 19700 nM.
Work on Cc1cc(C)cc(S(=O)(=O)c2c(C(=O)Nc3cccc(O)c3)[nH]c3ccc(Cl)cc23)c1 yielded a CC50 of 24600 nM.

System: not listed separately
Test: Selectivity ratio of CC50 for human MT4 cells to EC50 for antiviral activity against HIV-1 NL4-3 infected in human MT4 cells
Type: toxicity, cell-based
Details: read-out: Ratio CC50/EC50
Cc1cn([C@H]2C[C@H](N=[N+]=[N-])[C@@H](CO)O2)c(=O)[nH]c1=O [ZIDOVUDINE] showed a selectivity ratio greater than 8270.
Cc1cc(C)cc(S(=O)(=O)c2c(C(=O)NCCc3ccc(O)cc3)[nH]c3ccc(Cl)cc23)c1 showed a selectivity ratio greater than 39100.
Work on Cc1cc(C)cc(S(=O)(=O)c2c(C(=O)Nc3ccc(O)cc3)[nH]c3ccc(Cl)cc23)c1 yielded a selectivity ratio greater than 25800.
With Cc1cc(C)cc(S(=O)(=O)c2c(C(=O)Nc3ccccc3O)[nH]c3ccc(Cl)cc23)c1 the selectivity ratio was greater than 28200.
For Cc1cc(C)cc(S(=O)(=O)c2c(C(=O)Nc3cccc(O)c3)[nH]c3ccc(Cl)cc23)c1, the selectivity ratio was greater than 35200.

System: Human immunodeficiency virus 1
Test: Antiviral activity against HIV-1 NL4-3 infected in human MT-4 cells assessed as virus induced cytopathic effect by MTT assay
Type: functional, organism-based
Details: Human immunodeficiency virus 1, NL4-3, MT4
With Cc1cn([C@H]2C[C@H](N=[N+]=[N-])[C@@H](CO)O2)c(=O)[nH]c1=O [ZIDOVUDINE] the EC50 was 3.7 nM.
In the case of Cc1cc(C)cc(S(=O)(=O)c2c(C(=O)NCCc3ccc(O)cc3)[nH]c3ccc(Cl)cc23)c1, the EC50 is reported as less than 0.7 nM.
For Cc1cc(C)cc(S(=O)(=O)c2c(C(=O)Nc3ccc(O)cc3)[nH]c3ccc(Cl)cc23)c1, the EC50 was less than 0.7 nM.
Work on Cc1cc(C)cc(S(=O)(=O)c2c(C(=O)Nc3ccccc3O)[nH]c3ccc(Cl)cc23)c1 yielded an EC50 of less than 0.7 nM.
Compound Cc1cc(C)cc(S(=O)(=O)c2c(C(=O)Nc3cccc(O)c3)[nH]c3ccc(Cl)cc23)c1 has an EC50 of less than 0.7 nM.

System: Human immunodeficiency virus 1
Test: Antiviral activity against HIV1 harboring RT Y188L mutant infected in human MT4 cells assessed as protection against virus-induced cytopathic effect by MTT assay
Type: functional, organism-based
Details: Human immunodeficiency virus 1, MT4
In the case of Cc1cc(C)cc(S(=O)(=O)c2c(C(=O)NCCc3ccc(O)cc3)[nH]c3ccc(Cl)cc23)c1, the EC50 is reported as greater than 27400 nM.
Work on Cc1cc(C)cc(S(=O)(=O)c2c(C(=O)Nc3ccc(O)cc3)[nH]c3ccc(Cl)cc23)c1 yielded an EC50 of 989 nM.
Cc1cc(C)cc(S(=O)(=O)c2c(C(=O)Nc3ccccc3O)[nH]c3ccc(Cl)cc23)c1 gave an EC50 of 4810 nM.
With Cc1cc(C)cc(S(=O)(=O)c2c(C(=O)Nc3cccc(O)c3)[nH]c3ccc(Cl)cc23)c1 the EC50 was 455 nM.

Target: Human immunodeficiency virus type 1 reverse transcriptase (Human immunodeficiency virus 1, UniProt Q72547, K103N)
Test: Inhibition of RNA-dependent DNA polymerase activity of recombinant HIV-1 p66/p51 reverse transcriptase K103N mutant assessed as inhibition of [3H]dTTP incorporation using poly(rA)/oligo(dT) as templates incubated for 15 mins by MicroBeta scintillation counting method
Details: not given
Cc1cc(C)cc(S(=O)(=O)c2c(C(=O)Nc3ccc(O)cc3)[nH]c3ccc(Cl)cc23)c1 showed an IC50 of 106 nM.
